Literature values, collected in patent EP1195160B1, “Sustained release trimetazidine pharmaceutical compositions and a method of their preparation” (USV Ltd., priority 2000, dated 2002).
Where two headings read alike, the source gives them in different places.

Assays:
[1] = oral, immediate release preparation
[2] = 80mg dose, prolonged release coated reservoir system of EP 0 673 649, 12 volunteers
[3] = 20mg, single dose administration
[4] = value from the literature

## COc1ccc(CN2CCNCC2)c(OC)c1OC.Cl.Cl [Trimetazidine dihydrochloride, 1-(2,3,4-trimethoxybenzyl)-piperazine dihydrochloride]
[1]
  T max: around 1.8 ± 0.7 hours
  plasma half life: around 6.0 ± 1.4 hours
[2]
  steady state plasma concentration (Css): around 110 ng/ml
[3]
  maximum plasma concentration Cmax: 53.6 ± 9.0 ng/mL
[4]
  Elimination half life t 1/2: t 1/2 = 6.0 hours.
  Plasma concentration Css: Css = 84ng/ml
  T max: T max = 1.8 ± 0.7 hours.
  Volume of distribution Vd: Vd = 294 litres.
